Starred links: 1 amine or outer side, 2 acyl side, 3 side chain; linkers in the order of their positions; H or OH if unused. Non-standard residues stand in square brackets, D forms with d. Groups on a side chain read outwards from the residue. *: point of attachment. C18 diacid = O=C(O)CCCCCCCCCCCCCCCCC(=O)*; αMePhe(2-F) = C[C@](N)(Cc1ccccc1F)C(=O)O; γGlu = O=C(O)[C@H](CCC(=O)[*:2])N[*:1]; αMeY = C[C@](N)(Cc1ccc(O)cc1)C(=O)O; 4Pal = N[C@@H](Cc1ccncc1)C(=O)O; αMeL = CC(C)C[C@](C)(N)C(=O)O; αMeS = C[C@](N)(CO)C(=O)O; Orn = NCCC[C@H](N)C(=O)O; Aib = CC(C)(N)C(=O)O

In patent US20240270821A1, “GIP/GLP1/GCG TRI-RECEPTOR AGONISTS AND USES THEREOF” (priority 2023, published 2024) one finds EC50 data, which are given here for 17 substances.

Type in all cases: cell-based
For experiment [1], the target named is T1, hGIPR (Homo sapiens, UniProt P48546).
T1 sequence (P48546 22-466): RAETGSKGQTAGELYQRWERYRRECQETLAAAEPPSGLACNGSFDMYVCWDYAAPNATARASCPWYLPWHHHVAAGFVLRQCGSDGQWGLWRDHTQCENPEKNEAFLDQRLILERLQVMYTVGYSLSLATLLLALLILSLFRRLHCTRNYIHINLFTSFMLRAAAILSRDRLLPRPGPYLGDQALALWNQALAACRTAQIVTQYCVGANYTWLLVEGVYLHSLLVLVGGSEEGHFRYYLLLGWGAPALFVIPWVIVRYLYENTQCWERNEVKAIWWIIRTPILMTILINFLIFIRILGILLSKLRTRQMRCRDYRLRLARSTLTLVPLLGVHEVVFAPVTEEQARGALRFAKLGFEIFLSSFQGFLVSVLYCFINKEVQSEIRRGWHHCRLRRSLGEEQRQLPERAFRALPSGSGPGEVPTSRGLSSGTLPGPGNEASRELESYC
Kind of experiment: Functional cAMP activation in the presence of 0.1% casein (no HSA). The note with it: read-out: Relative cAMP EC50, hGIPR.

Experiment [2] deals with human GcgR (Homo sapiens, UniProt P47871). The experiment in a line: Functional cAMP activity in the presence of 1% HSA. Conditions: read-out: cAMP Rel EC50, hGcgR.
Experiment [3] deals with hGcgR (Homo sapiens, UniProt P47871). Kind of experiment: Functional cAMP activation in the presence of 0.1% casein (no HSA). The note with it: read-out: Relative cAMP EC50, hGcgR.
Experiment [4] deals with T2, hGLP-1R (Homo sapiens, UniProt P43220). Described as above. The note with it: read-out: Relative cAMP EC50, hGLP-1R.
Experiment [5] deals with T1, hGIPR. Kind of experiment: Functional cAMP activity in the presence of 1% HSA. Conditions: read-out: cAMP Rel EC50, hGIPR.
The target of experiment [6] is T2, hGLP-1R. Kind of experiment: Functional cAMP activity in the presence of 1% HSA. The note with it: read-out: cAMP Rel EC50, hGLP-1R.
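For Relative cAMP EC50, hGIPR in this document: intracellular cAMP rise after 30 min at 37 °C read by HTRF against a standard curve, scaled between buffer alone (0%) and top control ligand concentration (100%), four-parameter fit.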
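For Relative cAMP EC50, hGLP-1R in this document: intracellular cAMP rise after 30 min at 37 °C read by HTRF, normalized between buffer only (0%) and maximal control ligand (100%), four-parameter variable-slope fit.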
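For Relative cAMP EC50, hGcgR in this document: intracellular cAMP rise after 30 min at 37 °C, read by HTRF against a cAMP standard curve, scaled from buffer only (0%) to maximal control ligand response (100%).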

human GcgR, sequence (P47871 26-477): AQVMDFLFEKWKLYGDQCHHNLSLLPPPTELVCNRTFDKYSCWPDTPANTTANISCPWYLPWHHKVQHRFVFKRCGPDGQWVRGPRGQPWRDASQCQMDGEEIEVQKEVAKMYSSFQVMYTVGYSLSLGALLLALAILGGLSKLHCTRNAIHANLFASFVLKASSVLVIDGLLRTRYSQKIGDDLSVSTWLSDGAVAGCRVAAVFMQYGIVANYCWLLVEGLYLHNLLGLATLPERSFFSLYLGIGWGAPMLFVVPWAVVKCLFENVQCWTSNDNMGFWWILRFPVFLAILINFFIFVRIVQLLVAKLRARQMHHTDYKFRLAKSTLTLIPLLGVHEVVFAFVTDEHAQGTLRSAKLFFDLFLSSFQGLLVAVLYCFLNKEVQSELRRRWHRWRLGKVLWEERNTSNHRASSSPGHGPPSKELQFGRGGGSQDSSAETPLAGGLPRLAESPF
hGcgR, sequence (P47871 26-477): as above
T2 sequence (P43220 24-463): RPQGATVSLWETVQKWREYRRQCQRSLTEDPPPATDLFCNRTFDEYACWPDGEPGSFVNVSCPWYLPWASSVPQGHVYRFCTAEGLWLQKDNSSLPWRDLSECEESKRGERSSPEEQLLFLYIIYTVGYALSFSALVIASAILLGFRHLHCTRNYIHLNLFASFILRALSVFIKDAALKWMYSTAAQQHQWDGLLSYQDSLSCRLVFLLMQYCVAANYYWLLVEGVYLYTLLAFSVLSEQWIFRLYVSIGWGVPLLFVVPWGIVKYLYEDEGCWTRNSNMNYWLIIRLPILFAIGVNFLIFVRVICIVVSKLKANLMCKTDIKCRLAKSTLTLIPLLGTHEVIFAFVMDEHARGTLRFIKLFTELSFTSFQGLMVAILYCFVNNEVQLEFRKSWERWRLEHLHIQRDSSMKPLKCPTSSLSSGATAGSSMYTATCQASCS

As for “H-Y[Aib]QGT[αMePhe(2-F)]TSD[4Pal][αMeS]I[αMeL]LD[Orn]K([Glu-γGlu-C18 diacid])AQ[Aib][Orn]FI[dE][αMeY]LSEGGPSSGEPPPSGTE-NH2 [Example 563]”, the 50% effective concentration (EC50) in experiment [1] was found to be 0.132 nM; in experiment [2] it was 1010 nM; in experiment [3] it was 8.3 nM; in experiment [4], 1.01 nM; in experiment [5], 11.8 nM; in experiment [6], 98.7 nM.

For “H-Y[Aib]QGT[αMePhe(2-F)]TSD[4Pal][αMeS]I[αMeL]LD[Orn]K([γGlu-Glu-C18 diacid])AQ[Aib][Orn]FI[dE][αMeY]LSEGGPSSGEPPPSGTE-NH2 [Example 565]”, the EC50 in experiment [1] was 0.107 nM; in experiment [2], 1770 nM; in experiment [3], 10.3 nM; in experiment [4], 1.24 nM; in experiment [5], 21.9 nM; in experiment [6], 204 nM.

As for “H-Y[Aib]QGT[αMePhe(2-F)]TSD[4Pal][αMeS]I[αMeL]LD[Orn]K([γGlu-Glu-C18 diacid])AQ[Aib][Orn]FI[dE][αMeY]LSEGGPSSGEPPPSGTEE-NH2 [Example 566]”, the EC50 in experiment [1] came to 0.137 nM; in experiment [2], 1780 nM; in experiment [3], 7.18 nM; in experiment [4] it was 1.3 nM; in experiment [5] it was 30.1 nM; in experiment [6] it was 252 nM.

Regarding “H-Y[Aib]QGT[αMePhe(2-F)]TSD[4Pal][αMeS]I[αMeL]LD[Orn]K([γGlu-γGlu-C18 diacid])AA[Aib]EFI[dE][αMeY]LIEGGPSSGAPPPSGGGE-NH2 [Example 747]”, the half-maximal effective concentration (EC50) in experiment [1] stood at 0.00955 nM; in experiment [2], 169 nM; in experiment [3], 1.71 nM; in experiment [4], 0.229 nM; in experiment [5], 0.651 nM; in experiment [6] it was 20.3 nM.

With “H-Y[Aib]QGT[αMePhe(2-F)]TSD[4Pal][αMeS]I[αMeL]LD[Orn]K([γGlu-γGlu-C18 diacid])AA[Aib]EFI[dE][αMeY]LVEGGPSSGEPPPSGS-NH2 [Example 695]”, the 50% effective concentration (EC50) is 0.0136 nM in experiment [1]; 164 nM in experiment [2]; 1.93 nM in experiment [3]; 0.254 nM in experiment [4]; 0.772 nM in experiment [5]; 19.5 nM in experiment [6].

Turning to “H-Y[Aib]QGT[αMePhe(2-F)]TSD[4Pal][αMeS]I[αMeL]LD[Orn]K([γGlu-γGlu-C18 diacid])AQ[Aib]NFI[dE][αMeY]LIEGGPSSGEPEPEEG-NH2 [Example 474]”, the EC50 in experiment [1] turned out to be 0.0125 nM; in experiment [2], 166 nM; in experiment [3] it was 3.88 nM; in experiment [4], 0.236 nM; in experiment [5] it was 0.743 nM; in experiment [6] it was 10.6 nM.

In the case of “H-Y[Aib]QGT[αMePhe(2-F)]TSD[4Pal][αMeS]I[αMeL]LD[Orn]K([γGlu-γGlu-C18 diacid])AQ[Aib]NFI[dE][αMeY]LIEGGPSSGEPEPSEG-NH2 [Example 473]”, the EC50 amounted to 0.0101 nM in experiment [1]; 311 nM in experiment [2]; 2.72 nM in experiment [3]; 0.173 nM in experiment [4]; 1.11 nM in experiment [5]; 11.4 nM in experiment [6].

Turning to “H-Y[Aib]QGT[αMePhe(2-F)]TSD[4Pal][αMeS]I[αMeL]LD[Orn]K([γGlu-γGlu-C18 diacid])AQ[Aib]NFI[dE][αMeY]LQEGGPSSGEPPPEGT-NH2 [Example 525]”, the EC50 in experiment [1] worked out at 0.0351 nM; in experiment [2] it was 460 nM; in experiment [3] it was 10 nM; in experiment [4], 0.426 nM; in experiment [5] it was 2.07 nM; in experiment [6] it was 20.2 nM.

As to “H-Y[Aib]QGT[αMePhe(2-F)]TSD[4Pal][αMeS]I[αMeL]LD[Orn]K([γGlu-γGlu-C18 diacid])AQ[Aib]NFI[dE][αMeY]LQEGGPSSGEPPPEGTGE-NH2 [Example 527]”, the concentration for a half-maximal effect (EC50) in experiment [1] came to 0.0386 nM; in experiment [2] it was 580 nM; in experiment [3], 6.99 nM; in experiment [4], 0.446 nM; in experiment [5] it was 2.6 nM; in experiment [6], 26.8 nM.

As to “H-Y[Aib]QGT[αMePhe(2-F)]TSD[4Pal][αMeS]I[αMeL]LD[Orn]K([γGlu-γGlu-C18 diacid])AQ[Aib]QFI[dE][αMeY]LQEGGPSSGEPPPEGTGE-NH2 [Example 529]”, the concentration for a half-maximal effect (EC50) was 0.0273 nM in experiment [1]; 398 nM in experiment [2]; 6.59 nM in experiment [3]; 0.467 nM in experiment [4]; 1.39 nM in experiment [5]; 24.5 nM in experiment [6].

As to “H-Y[Aib]QGT[αMePhe(2-F)]TSD[4Pal][αMeS]I[αMeL]LD[Orn]K([γGlu-γGlu-C18 diacid])AQ[Aib][Orn]FI[dE]YLIEGGPSSGEPPPSGTEE-NH2 [Example 535]”, the concentration giving a half-maximal response (EC50) in experiment [1] worked out at 0.0183 nM; in experiment [2], 238 nM; in experiment [3], 3.16 nM; in experiment [4], 0.418 nM; in experiment [5], 1.16 nM; in experiment [6] it was 29.9 nM.

With “H-Y[Aib]QGT[αMePhe(2-F)]TSD[4Pal][αMeS]I[αMeL]LD[Orn]K([γGlu-γGlu-C18 diacid])AQ[Aib][Orn]FI[dE]YLIEGGPSSGEPPPSGTEEE-NH2 [Example 540]”, the concentration for a half-maximal effect (EC50) in experiment [1] worked out at 0.0296 nM; in experiment [2], 405 nM; in experiment [3], 5.62 nM; in experiment [4], 0.686 nM; in experiment [5], 1.93 nM; in experiment [6], 38.2 nM.

Regarding “H-Y[Aib]QGT[αMePhe(2-F)]TSD[4Pal][αMeS]I[αMeL]LD[Orn]K([γGlu-γGlu-C18 diacid])AQ[Aib][Orn]FI[dE]YLIEGGPSSGEPPPSGTGE-NH2 [Example 523]”, the 50% effective concentration (EC50) in experiment [1] was determined as 0.021 nM; in experiment [2], 234 nM; in experiment [3], 3.79 nM; in experiment [4], 0.482 nM; in experiment [5], 0.869 nM; in experiment [6] it was 27.1 nM.

In the case of “H-Y[Aib]QGT[αMePhe(2-F)]TSD[4Pal][αMeS]I[αMeL]LD[Orn]K([γGlu-γGlu-C18 diacid])AQ[Aib][Orn]FI[dE]YLLEGGPSSGEPPPSGTE-NH2 [Example 532]”, the concentration giving a half-maximal response (EC50) in experiment [1] was determined as 0.0159 nM; in experiment [2], 157 nM; in experiment [3], 1.37 nM; in experiment [4], 0.577 nM; in experiment [5], 1.49 nM; in experiment [6] it was 47.3 nM.

Turning to “H-Y[Aib]QGT[αMePhe(2-F)]TSD[4Pal][αMeS]I[αMeL]LD[Orn]K([γGlu-γGlu-C18 diacid])AQ[Aib][Orn]FI[dE]YLSEGGPSSGEPPPSGTE-NH2 [Example 530]”, the half-maximal effective concentration (EC50) in experiment [1] was 0.874 nM; in experiment [2] it was 1280 nM; in experiment [3], 17.1 nM; in experiment [4] it was 4.91 nM; in experiment [5], 63.7 nM; in experiment [6], 437 nM.

Take “H-Y[Aib]QGT[αMePhe(2-F)]TSD[4Pal][αMeS]I[αMeL]LD[Orn]K([γGlu-γGlu-C18 diacid])AQ[Aib][Orn]FI[dE][αMeY]LAEGGPSSGEPPPSGAEE-NH2 [Example 591]”: the EC50 worked out at 0.0579 nM in experiment [1]; 234 nM in experiment [2]; 4.67 nM in experiment [3]; 0.773 nM in experiment [4]; 3 nM in experiment [5]; 44.5 nM in experiment [6].

In the case of “H-Y[Aib]QGT[αMePhe(2-F)]TSD[4Pal][αMeS]I[αMeL]LD[Orn]K([γGlu-γGlu-C18 diacid])AQ[Aib][Orn]FI[dE][αMeY]LAEGGPSSGEPPPSGEEE-NH2 [Example 592]”, the concentration for a half-maximal effect (EC50) in experiment [1] was 0.0971 nM; in experiment [2], 195 nM; in experiment [3], 4.25 nM; in experiment [4], 1.12 nM; in experiment [5], 4.05 nM; in experiment [6], 55.6 nM.

By EC50 is commonly meant the concentration giving half of the maximal effect.
